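1) Cells in 96-well plates. 2) Compound, 48 h, 5 concentrations. 3) Linear interpolation between surrounding doses. 4) Unreached endpoint = highest concentration. Definition used: TGI = concentration required for complete inhibition of growth.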
How the values were obtained:
Assay in all cases: DTP human tumour cell line panel, 48 h
786-0 renal = test system: 786-0 renal
A498 renal = test system: A498 renal
A549 NSCLC = test system: A549 NSCLC
ACHN renal = test system: ACHN renal
CAKI-1 renal = test system: CAKI-1 renal
CCRF-CEM leukemia = test system: CCRF-CEM leukemia
COLO 205 colon = test system: COLO 205 colon
DLD-1 colon = test system: DLD-1 colon
DMS 114 small cell lung = test system: DMS 114 small cell lung
EKVX NSCLC = test system: EKVX NSCLC
HCC-2998 colon = test system: HCC-2998 colon
HCT-116 colon = test system: HCT-116 colon
HCT-15 colon = test system: HCT-15 colon
HL-60(TB) leukemia = test system: HL-60(TB) leukemia
HOP-18 NSCLC = test system: HOP-18 NSCLC
HOP-62 NSCLC = test system: HOP-62 NSCLC
HOP-92 NSCLC = test system: HOP-92 NSCLC
HT29 colon = test system: HT29 colon
IGROV1 ovarian = test system: IGROV1 ovarian
K-562 leukemia = test system: K-562 leukemia
KM12 colon = test system: KM12 colon
KM20L2 colon = test system: KM20L2 colon
LOX IMVI melanoma = test system: LOX IMVI melanoma
LXFL 529 NSCLC = test system: LXFL 529 NSCLC
M14 melanoma = test system: M14 melanoma
M19-MEL melanoma = test system: M19-MEL melanoma
MALME-3M melanoma = test system: MALME-3M melanoma
MOLT-4 leukemia = test system: MOLT-4 leukemia
NCI-H23 lung = test system: NCI-H23 lung
NCI-H460 lung = test system: NCI-H460 lung
NCI-H522 lung = test system: NCI-H522 lung
OVCAR-4 ovarian = test system: OVCAR-4 ovarian
OVCAR-5 ovarian = test system: OVCAR-5 ovarian
OVCAR-8 ovarian = test system: OVCAR-8 ovarian
RPMI-8226 leukemia = test system: RPMI-8226 leukemia
RXF 393 renal = test system: RXF 393 renal
RXF-631 renal = test system: RXF-631 renal
SF-268 CNS = test system: SF-268 CNS
SF-295 CNS = test system: SF-295 CNS
SF-539 CNS = test system: SF-539 CNS
SK-MEL-2 melanoma = test system: SK-MEL-2 melanoma
SK-MEL-28 melanoma = test system: SK-MEL-28 melanoma
SK-MEL-5 melanoma = test system: SK-MEL-5 melanoma
SK-OV-3 ovarian = test system: SK-OV-3 ovarian
SN12C renal = test system: SN12C renal
SNB-19 CNS = test system: SNB-19 CNS
SNB-75 CNS = test system: SNB-75 CNS
SR leukemia = test system: SR leukemia
SW-620 colon = test system: SW-620 colon
TK-10 renal = test system: TK-10 renal
U251 CNS = test system: U251 CNS
UACC-257 melanoma = test system: UACC-257 melanoma
UACC-62 melanoma = test system: UACC-62 melanoma
UO-31 renal = test system: UO-31 renal
XF 498 CNS = test system: XF 498 CNS
NCI-H226 lung = test system: NCI-H226 lung
OVCAR-3 ovarian = test system: OVCAR-3 ovarian

Question: Which results are given for CN(C)CCc1ccc(Cl)cc1Cl?
Answer: TGI (786-0 renal): > 100 µM; TGI (A498 renal): > 100 µM; TGI (A549 NSCLC): > 100 µM; TGI (ACHN renal): > 100 µM; TGI (CAKI-1 renal): > 100 µM; TGI (CCRF-CEM leukemia): > 100 µM; TGI (COLO 205 colon): > 100 µM; TGI (DLD-1 colon): > 100 µM; TGI (DMS 114 small cell lung): > 100 µM; TGI (EKVX NSCLC): > 100 µM; TGI (HCC-2998 colon): > 100 µM; TGI (HCT-116 colon): > 100 µM; TGI (HCT-15 colon): > 100 µM; TGI (HL-60(TB) leukemia): > 100 µM; TGI (HOP-18 NSCLC): > 100 µM; TGI (HOP-62 NSCLC): > 100 µM; TGI (HOP-92 NSCLC): > 100 µM; TGI (HT29 colon): > 100 µM; TGI (IGROV1 ovarian): > 100 µM; TGI (K-562 leukemia): > 100 µM; TGI (KM12 colon): > 100 µM; TGI (KM20L2 colon): > 100 µM; TGI (LOX IMVI melanoma): > 100 µM; TGI (LXFL 529 NSCLC): > 100 µM; TGI (M14 melanoma): > 100 µM; TGI (M19-MEL melanoma): > 100 µM; TGI (MALME-3M melanoma): > 100 µM; TGI (MOLT-4 leukemia): > 100 µM; TGI (NCI-H23 lung): > 100 µM; TGI (NCI-H460 lung): > 100 µM; TGI (NCI-H522 lung): > 100 µM; TGI (OVCAR-4 ovarian): > 100 µM; TGI (OVCAR-5 ovarian): > 100 µM; TGI (OVCAR-8 ovarian): > 100 µM; TGI (RPMI-8226 leukemia): > 100 µM; TGI (RXF 393 renal): > 100 µM; TGI (RXF-631 renal): > 100 µM; TGI (SF-268 CNS): > 100 µM; TGI (SF-295 CNS): > 100 µM; TGI (SF-539 CNS): > 100 µM; TGI (SK-MEL-2 melanoma): > 100 µM; TGI (SK-MEL-28 melanoma): > 100 µM; TGI (SK-MEL-5 melanoma): > 100 µM; TGI (SK-OV-3 ovarian): > 100 µM; TGI (SN12C renal): > 100 µM; TGI (SNB-19 CNS): > 100 µM; TGI (SNB-75 CNS): > 100 µM; TGI (SR leukemia): > 100 µM; TGI (SW-620 colon): > 100 µM; TGI (TK-10 renal): > 100 µM; TGI (U251 CNS): > 100 µM; TGI (UACC-257 melanoma): > 100 µM; TGI (UACC-62 melanoma): > 100 µM; TGI (UO-31 renal): > 100 µM; TGI (XF 498 CNS): > 100 µM

Question: Which results are given for Cc1c(Cl)ccc2c1NC(=O)C2(O)CC(=O)c1ccc2ccccc2c1 (configuration not stated)?
Answer: TGI (786-0 renal): > 100 µM; TGI (A498 renal): > 100 µM; TGI (A549 NSCLC): > 100 µM; TGI (ACHN renal): > 100 µM; TGI (CAKI-1 renal): > 100 µM; TGI (CCRF-CEM leukemia): > 100 µM; TGI (COLO 205 colon): > 100 µM; TGI (DLD-1 colon): > 100 µM; TGI (DMS 114 small cell lung): 58.4 µM; TGI (EKVX NSCLC): > 100 µM; TGI (HCC-2998 colon): > 100 µM; TGI (HCT-116 colon): > 100 µM; TGI (HCT-15 colon): > 100 µM; TGI (HOP-18 NSCLC): > 100 µM; TGI (HOP-62 NSCLC): > 100 µM; TGI (HOP-92 NSCLC): > 100 µM; TGI (HT29 colon): > 100 µM; TGI (IGROV1 ovarian): > 100 µM; TGI (K-562 leukemia): > 100 µM; TGI (KM12 colon): > 100 µM; TGI (KM20L2 colon): > 100 µM; TGI (LOX IMVI melanoma): > 100 µM; TGI (M14 melanoma): > 100 µM; TGI (MALME-3M melanoma): > 100 µM; TGI (MOLT-4 leukemia): 89.5 µM; TGI (NCI-H226 lung): > 100 µM; TGI (NCI-H23 lung): > 100 µM; TGI (NCI-H460 lung): > 100 µM; TGI (NCI-H522 lung): 61.7 µM; TGI (OVCAR-3 ovarian): > 100 µM; TGI (OVCAR-4 ovarian): > 100 µM; TGI (OVCAR-5 ovarian): > 100 µM; TGI (OVCAR-8 ovarian): > 100 µM; TGI (RPMI-8226 leukemia): 46.7 µM; TGI (RXF 393 renal): 88.9 µM; TGI (RXF-631 renal): > 100 µM; TGI (SF-268 CNS): > 100 µM; TGI (SF-295 CNS): > 100 µM; TGI (SF-539 CNS): > 100 µM; TGI (SK-MEL-2 melanoma): > 100 µM; TGI (SK-MEL-28 melanoma): > 100 µM; TGI (SK-OV-3 ovarian): > 100 µM; TGI (SN12C renal): > 100 µM; TGI (SNB-19 CNS): > 100 µM; TGI (SNB-75 CNS): 54.2 µM; TGI (SW-620 colon): > 100 µM; TGI (TK-10 renal): > 100 µM; TGI (U251 CNS): > 100 µM; TGI (UACC-257 melanoma): > 100 µM; TGI (UACC-62 melanoma): > 100 µM; TGI (UO-31 renal): > 100 µM; TGI (XF 498 CNS): > 100 µM

Source: PubChem BioAssay (NCI)
